The source of these data is patent US9890138B2, “Diaminopyrimidine derivatives and processes for the preparation thereof” (YUHAN CORPORATION, priority 2011, dated 2018).

Where a name gives a salt, the structure may show the parent alone.

In general, EC50 refers to the concentration at which the effect is half-maximal.

T1 sequence (Q13639 1-387 isoform Q13639-2): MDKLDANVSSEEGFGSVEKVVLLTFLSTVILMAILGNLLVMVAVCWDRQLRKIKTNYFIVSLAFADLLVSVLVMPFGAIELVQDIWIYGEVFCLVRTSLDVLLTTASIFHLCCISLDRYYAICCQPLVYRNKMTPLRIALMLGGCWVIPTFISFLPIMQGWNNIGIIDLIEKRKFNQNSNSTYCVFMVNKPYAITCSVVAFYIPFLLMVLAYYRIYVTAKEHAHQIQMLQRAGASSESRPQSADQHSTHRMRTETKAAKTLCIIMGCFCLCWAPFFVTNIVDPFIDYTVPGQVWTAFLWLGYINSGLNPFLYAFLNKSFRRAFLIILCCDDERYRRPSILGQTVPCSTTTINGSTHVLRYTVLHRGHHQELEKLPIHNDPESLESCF

This experiment concerns the target T1, human 5-HT4(a) (Homo sapiens, UniProt Q13639).
T1 construct: host or cells: GeneBlAzer HTR4-CRE-bla CHO-K1 cells
The experiment can be described thus: Evaluation of agonistic activity in CHO-K1 cells expressing human 5-HT4(a) (GeneBlAzer HTR4-CRE-bla CHO-K1, beta-lactamase reporter). It counts as cell-based. The settings on record: CHO-K1 cells stably expressing human 5-HT4(a). The gist of the method: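 Agonism read as CRE-driven β-lactamase activity: emission ratio 465/535 nm (excitation 410 nm) after 2 h substrate loading. Preceded by 5 h compound treatment, 8 concentrations, 1% DMSO in the added solution, of overnight-plated reporter CHO-K1 cells; EC50 by non-linear regression.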
The compound `CCCc1cc(N2CC[C@H](NCC3CC3)C2)nc(Nc2ccc(F)c(C(F)(F)F)c2)n1` [Example 382] registered a concentration for a half-maximal effect (EC50) of 5.1 pM.

The compound `CCCc1cc(N2CC[C@H](NCC3CC3)C2)nc(Nc2ccc(C)c(N)c2)n1` [Example 383] had an EC50 of 5.7 pM.

As for `CCCc1cc(N2CC[C@H](NCC3CC3)C2)nc(Nc2cccc(N)c2)n1` [Example 384], it took 77 pM to reach a half-maximal effect (EC50).

Regarding `CCCc1cc(N2CCC(NCC3CC3)C2)nc(Nc2cccc(C#N)c2)n1` (centres unmarked) [Example 387, 3-{4-[3-(cyclopropylmethylamino)pyrrolidin-1-yl]-6-propylpyrimidin-2-ylamino}benzonitrile dihydrochloride], the EC50 worked out at 7 pM.

For `CCCc1cc(N2CC[C@H](NC(=O)CN)C2)nc(Nc2cccc(C#N)c2)n1` [Example 395], the response was half-maximal at 82 pM (EC50).

Take `CCCc1cc(N2CCC[C@H]2CO)nc(Nc2ccc(C)c(N)c2)n1` [Example 399]: the EC50 stood at 130 pM.

`CCCc1cc(N2CCC[C@H]2CO)nc(Nc2ccc(F)c(N)c2)n1` [Example 400] came in with an EC50 of 33 pM.

As for `CCCc1cc(N2CCC[C@H]2CO)nc(Nc2ccc(Cl)c(N)c2)n1` [Example 401], a half-maximal effect (EC50) was put at 73 pM.

`CCCc1cc(N2CCC[C@H]2C=O)nc(Nc2cccc(C#N)c2)n1` [Example 402, (S)-3-[4-(2-formylpyrrolidin-1-yl)-6-propylpyrimidin-2-ylamino]benzonitrile] yielded a half-maximal effective concentration (EC50) of 236 pM.

As for `CCCc1cc(N2CCC[C@H]2CNC)nc(Nc2cccc(C#N)c2)n1` [Example 403], it took 414 pM to reach a half-maximal effect (EC50).

Compound `CCCc1cc(N2CCC[C@H]2CNCc2ccc(F)cc2)nc(Nc2cccc(C#N)c2)n1` [Example 405] showed an EC50 of 399 pM.

`CCCNC[C@@H]1CCCN1c1cc(CCC)nc(Nc2cccc(C#N)c2)n1` [Example 406] displayed a concentration giving a half-maximal response (EC50) of 402 pM.

The compound `CCCc1cc(N2CCC[C@H]2CNCCO)nc(Nc2cccc(C#N)c2)n1` [Example 407] showed an EC50 of 254 pM.

The compound `CCCN[C@H]1CCN(c2cc(CCC)nc(Nc3ccc(C)c(C#N)c3)n2)C1` [Example 414] showed a 50% effective concentration (EC50) of 3.4 pM.

With `CCCc1cc(N2CC[C@H](NCCCSC)C2)nc(Nc2ccc(C)c(C#N)c2)n1` [Example 415], it took 15 pM to reach a half-maximal effect (EC50).

Turning to `CCCc1cc(N2CC[C@H](NCc3ccc[nH]3)C2)nc(Nc2ccc(C)c(C#N)c2)n1` [Example 416], the EC50 came out at 7.4 pM.

`CCCc1cc(N2CC[C@H](NCc3ccc(O)cc3)C2)nc(Nc2ccc(C)c(C#N)c2)n1` [Example 417]: the EC50 worked out at 5.1 pM.

`CCCc1cc(N2CC[C@H](NC(C)C)C2)nc(Nc2ccc(C)c(C#N)c2)n1` [Example 418, (S)-5-{4-[3-(isopropylamino)pyrrolidin-1-yl]-6-propylpyrimidin-2-ylamino]-2-methylbenzonitrile] had an EC50 of 2.2 pM.

`CCCc1cc(N2CC[C@H](NC3CCC3)C2)nc(Nc2ccc(C)c(C#N)c2)n1` [Example 419] returned an EC50 of 3.2 pM.

Compound `CCCc1cc(N2CC[C@H](NC3CCCC3)C2)nc(Nc2ccc(C)c(C#N)c2)n1` [Example 420] had an EC50 of 2.9 pM.

`CCCc1cc(N2CC[C@H](NC3CCCCC3)C2)nc(Nc2ccc(C)c(C#N)c2)n1` [Example 421] yielded an EC50 of 7.9 pM.

For the compound `CCCCCN[C@H]1CCN(c2cc(CCC)nc(Nc3ccc(C)c(C#N)c3)n2)C1` [Example 422], the response was half-maximal at 11 pM (EC50).

For `CCCc1cc(N2CC[C@H](NCC(C)(C)C)C2)nc(Nc2ccc(C)c(C#N)c2)n1` [Example 423], it took 8.4 pM to reach a half-maximal effect (EC50).

With `CCCc1cc(N2CC[C@H](NCc3cc(C)c(C)o3)C2)nc(Nc2ccc(C)c(C#N)c2)n1` [Example 424], the EC50 is 20 pM.

In turn, `CCCc1cc(N2CC[C@H](NC(=O)CC)C2)nc(Nc2ccc(C)c(C#N)c2)n1` [Example 425] showed an EC50 of 56 pM.

In turn, `CCCc1cc(N2CC[C@H](NC(=O)Cc3ccccc3)C2)nc(Nc2ccc(C)c(C#N)c2)n1` [Example 426] gave an EC50 of 79 pM.

The compound `CCCc1cc(N2CC[C@H](NC(=O)CN3CCCCC3)C2)nc(Nc2ccc(C)c(C#N)c2)n1` [Example 427] returned an EC50 of 24 pM.

The compound `CCCc1cc(N2CC[C@H](NC(=O)Cc3cccnc3)C2)nc(Nc2ccc(C)c(C#N)c2)n1` [Example 428] displayed an EC50 of 66 pM.

Compound `CCCc1cc(N2CC[C@H](NC(=O)Cc3ccncc3)C2)nc(Nc2ccc(C)c(C#N)c2)n1` [Example 429] came in with an EC50 of 25 pM.

`CCCc1cc(N2CC[C@H](NC(=O)Cc3cccs3)C2)nc(Nc2ccc(C)c(C#N)c2)n1` [Example 430] displayed an EC50 of 27 pM.

With `CCCc1cc(N2CC[C@H](NS(C)(=O)=O)C2)nc(Nc2ccc(C)c(C#N)c2)n1` [Example 431, (S)—N-{1-[2-(3-cyano-4-methylphenylamino)-6-propylpyrimidin-4-yl]pyrrolidin-3-yl}methanesulfonamide], the EC50 came out at 29 pM.

Take `CCCc1cc(N2CC[C@H](NC(=O)NCC)C2)nc(Nc2ccc(C)c(C#N)c2)n1` [Example 433]: the EC50 was 55 pM.

`CCCc1cc(N2CC[C@H](CN(CC)CC)C2)nc(Nc2cccc(C#N)c2)n1` [Example 434]: the EC50 was found to be 111 pM.

Compound `CCCCc1cc(N2CC[C@H](NC(C)=O)C2)nc(Nc2ccc(C)c([N+](=O)[O-])c2)n1` [Example 436] showed an EC50 of 10 pM.

In the case of `CCCCc1cc(N2CC[C@H](NC(C)=O)C2)nc(Nc2ccc(F)c([N+](=O)[O-])c2)n1` [Example 437], the response was half-maximal at 20 pM (EC50).

In turn, `CCCCc1cc(N2CC[C@H](NC(C)=O)C2)nc(Nc2ccc(Cl)c([N+](=O)[O-])c2)n1` [Example 438] came in with an EC50 of 15 pM.

`CCCCc1cc(N2CC[C@H](NC(C)=O)C2)nc(Nc2cc(N)cc(C#N)c2)n1` [Example 439] returned an EC50 of 7.5 pM.

`CCCCc1cc(N2CC[C@H](NC(C)=O)C2)nc(Nc2cc(N)cc(C(F)(F)F)c2)n1` [Example 440] yielded an EC50 of 17 pM.

For `CCCCc1cc(N2CC[C@H](NC(C)=O)C2)nc(Nc2ccc(N)c(C(F)(F)F)c2)n1` [Example 441], the EC50 is 9.5 pM.

For `CCCCc1cc(N2CC[C@H](NC(C)=O)C2)nc(Nc2ccc(F)c(C(F)(F)F)c2)n1` [Example 442], it took 41 pM to reach a half-maximal effect (EC50).

Turning to `CCCCc1cc(N2CC[C@H](NC(C)=O)C2)nc(Nc2ccc(F)c(C#N)c2)n1` [Example 443], the EC50 worked out at 9.9 pM.

`CCCCc1cc(N2CC[C@H](NC(C)=O)C2)nc(Nc2ccc(F)c(N)c2)n1` [Example 444] yielded an EC50 of 12 pM.

In the case of `CCCCc1cc(N2CC[C@H](NC(C)=O)C2)nc(Nc2ccc(Cl)c(N)c2)n1` [Example 445], it took 9.8 pM to reach a half-maximal effect (EC50).

In the case of `CCCCc1cc(N2CC[C@H](NC(C)=O)C2)nc(Nc2ccc(N)c(C#N)c2)n1` [Example 446], the EC50 was found to be 7.7 pM.

`CCCCc1cc(N2CC[C@H](NC)C2)nc(Nc2ccc(N)c(C#N)c2)n1` [Example 447] registered an EC50 of 2.3 pM.

Compound `CCCCc1cc(N2CC[C@H](NC)C2)nc(Nc2ccc(C)c([N+](=O)[O-])c2)n1` [Example 448] showed a concentration giving a half-maximal response (EC50) of 2.5 pM.

On to `CCCCc1cc(N2CC[C@H](NC)C2)nc(Nc2ccc(F)c([N+](=O)[O-])c2)n1` [Example 449], for which the EC50 came out at 4.4 pM.

In turn, `CCCCc1cc(N2CC[C@H](NC)C2)nc(Nc2ccc(Cl)c([N+](=O)[O-])c2)n1` [Example 450] had a half-maximal effective concentration (EC50) of 7.8 pM.

Compound `CCCCc1cc(N2CC[C@H](NC)C2)nc(Nc2cc(N)cc(C#N)c2)n1` [Example 451] showed an EC50 of 3 pM.

`CCCCc1cc(N2CC[C@H](NC)C2)nc(Nc2cc(N)cc(C(F)(F)F)c2)n1` [Example 452] registered an EC50 of 3.3 pM.

For the compound `CCCCc1cc(N2CC[C@H](NC)C2)nc(Nc2ccc(N)c(C(F)(F)F)c2)n1` [Example 453], the midpoint of the response, the EC50, lay at 1.6 pM.

As to `CCCCc1cc(N2CC[C@H](NC)C2)nc(Nc2ccc(F)c(C(F)(F)F)c2)n1` [Example 454], the EC50 was 14 pM.

As to `CCCCc1cc(N2CC[C@H](NC)C2)nc(Nc2ccc(F)c(C#N)c2)n1` [Example 455], the EC50 is 3.8 pM.

Regarding `CCCCc1cc(N2CC[C@H](NC)C2)nc(Nc2ccc(F)c(N)c2)n1` [Example 456], the EC50 turned out to be 2.6 pM.

On to `CCCCc1cc(N2CC[C@H](NC)C2)nc(Nc2ccc(Cl)c(N)c2)n1` [Example 457], for which it took 3 pM to reach a half-maximal effect (EC50).

With `CCCCc1cc(N2CC[C@H](NCC)C2)nc(Nc2ccc(N)c(C#N)c2)n1` [Example 458], the EC50 is 1.7 pM.

`CCCCc1cc(N2CC[C@H](NCC)C2)nc(Nc2cccc(C#N)c2)n1` [Example 459]: the EC50 is 3.4 pM.

Compound `CCCCc1cc(N2CC[C@H](NCC)C2)nc(Nc2ccc(C)c(C#N)c2)n1` [Example 460] displayed an EC50 of 1.9 pM.

`CCCCc1cc(N2CC[C@H](NCC)C2)nc(Nc2ccc(N)c([N+](=O)[O-])c2)n1` [Example 461]: the concentration for a half-maximal effect (EC50) was 1.9 pM.

The compound `CCCCc1cc(N2CC[C@H](NCC)C2)nc(Nc2ccc(C)c([N+](=O)[O-])c2)n1` [Example 462] gave an EC50 of 2.6 pM.

`CCCCc1cc(N2CC[C@H](NCC)C2)nc(Nc2ccc(F)c([N+](=O)[O-])c2)n1` [Example 463] yielded an EC50 of 2.1 pM.

`CCCCc1cc(N2CC[C@H](NCC)C2)nc(Nc2ccc(Cl)c([N+](=O)[O-])c2)n1` [Example 464] displayed an EC50 of 3.9 pM.

`CCCCc1cc(N2CC[C@H](NCC)C2)nc(Nc2cc(N)cc(C#N)c2)n1` [Example 465] displayed an EC50 of 2.2 pM.

Turning to `CCCCc1cc(N2CC[C@H](NCC)C2)nc(Nc2cc(N)cc(C(F)(F)F)c2)n1` [Example 466], the EC50 was 5.8 pM.

As for `CCCCc1cc(N2CC[C@H](NCC)C2)nc(Nc2ccc(N)c(C(F)(F)F)c2)n1` [Example 467], the EC50 came out at 1.4 pM.

`CCCCc1cc(N2CC[C@H](NCC)C2)nc(Nc2ccc(F)c(C(F)(F)F)c2)n1` [Example 468] gave a concentration giving a half-maximal response (EC50) of 6.2 pM.

For `CCCCc1cc(N2CC[C@H](NCC)C2)nc(Nc2ccc(F)c(C#N)c2)n1` [Example 469], the response was half-maximal at 2.1 pM (EC50).

Compound `CCCCc1cc(N2CC[C@H](NCC)C2)nc(Nc2ccc(F)c(N)c2)n1` [Example 470] registered an EC50 of 2.5 pM.
